Experimental data published in PubChem BioAssay (NCI).
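Growth conditions: 96-well plates. Treatment: test compound, 48 hours, 5 concentrations. Analysis: linear interpolation between bracketing concentrations; unreached endpoints set to highest concentration. The concentration for full growth arrest is given as TGI.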

Assays:
Assay in all cases: NCI anticancer screen, dose series, 48 h
786-0 renal = system: 786-0 renal
A498 renal = system: A498 renal
A549 NSCLC = system: A549 NSCLC
ACHN renal = system: ACHN renal
BT-549 breast = system: BT-549 breast
DU-145 prostate = system: DU-145 prostate
EKVX NSCLC = system: EKVX NSCLC
HCT-116 colon = system: HCT-116 colon
HCT-15 colon = system: HCT-15 colon
HOP-62 NSCLC = system: HOP-62 NSCLC
HOP-92 NSCLC = system: HOP-92 NSCLC
HS 578T breast = system: HS 578T breast
HT29 colon = system: HT29 colon
IGROV1 ovarian = system: IGROV1 ovarian
K-562 leukemia = system: K-562 leukemia
KM12 colon = system: KM12 colon
LOX IMVI melanoma = system: LOX IMVI melanoma
M14 melanoma = system: M14 melanoma
MCF7 breast = system: MCF7 breast
MDA-MB-231 breast = system: MDA-MB-231 breast
MDA-MB-435 = system: MDA-MB-435
MDA-N = system: MDA-N
MOLT-4 leukemia = system: MOLT-4 leukemia
NCI-H226 lung = system: NCI-H226 lung
NCI-H460 lung = system: NCI-H460 lung
NCI-H522 lung = system: NCI-H522 lung
NCI/ADR-RES ovarian = system: NCI/ADR-RES ovarian
OVCAR-3 ovarian = system: OVCAR-3 ovarian
OVCAR-4 ovarian = system: OVCAR-4 ovarian
OVCAR-5 ovarian = system: OVCAR-5 ovarian
OVCAR-8 ovarian = system: OVCAR-8 ovarian
PC-3 prostate = system: PC-3 prostate
RPMI-8226 leukemia = system: RPMI-8226 leukemia
SF-268 CNS = system: SF-268 CNS
SF-295 CNS = system: SF-295 CNS
SF-539 CNS = system: SF-539 CNS
SK-MEL-2 melanoma = system: SK-MEL-2 melanoma
SK-MEL-28 melanoma = system: SK-MEL-28 melanoma
SK-OV-3 ovarian = system: SK-OV-3 ovarian
SN12C renal = system: SN12C renal
SNB-19 CNS = system: SNB-19 CNS
SNB-75 CNS = system: SNB-75 CNS
SW-620 colon = system: SW-620 colon
T-47D breast = system: T-47D breast
TK-10 renal = system: TK-10 renal
U251 CNS = system: U251 CNS
UACC-257 melanoma = system: UACC-257 melanoma
UACC-62 melanoma = system: UACC-62 melanoma
UO-31 renal = system: UO-31 renal
CAKI-1 renal = system: CAKI-1 renal
CCRF-CEM leukemia = system: CCRF-CEM leukemia
COLO 205 colon = system: COLO 205 colon
HCC-2998 colon = system: HCC-2998 colon
HL-60(TB) leukemia = system: HL-60(TB) leukemia
MALME-3M melanoma = system: MALME-3M melanoma
NCI-H23 lung = system: NCI-H23 lung
RXF 393 renal = system: RXF 393 renal
SK-MEL-5 melanoma = system: SK-MEL-5 melanoma
SR leukemia = system: SR leukemia

C[C@H](C/C=C/C(C)(C)O)[C@H]1CC[C@@]2(C)[C@@H]3CC[C@H]4C(C)(C)[C@@H](O)CC[C@@]45C[C@@]35CC[C@]12C
TGI (786-0 renal): 46.5 µM | TGI (A498 renal): 40.8 µM | TGI (A549 NSCLC): 31 µM | TGI (ACHN renal): 18.9 µM | TGI (BT-549 breast): 56 µM | TGI (DU-145 prostate): 28.8 µM | TGI (EKVX NSCLC): 34.7 µM | TGI (HCT-116 colon): 37.1 µM | TGI (HCT-15 colon): 83.1 µM | TGI (HOP-62 NSCLC): 33.6 µM | TGI (HOP-92 NSCLC): 26.5 µM | TGI (HS 578T breast): 27.8 µM | TGI (HT29 colon): > 100 µM | TGI (IGROV1 ovarian): 48.9 µM | TGI (K-562 leukemia): 70.3 µM | TGI (KM12 colon): 77.4 µM | TGI (LOX IMVI melanoma): 29.4 µM | TGI (M14 melanoma): 44.5 µM | TGI (MCF7 breast): > 100 µM | TGI (MDA-MB-231 breast): 33.2 µM | TGI (MDA-MB-435): 50.7 µM | TGI (MDA-N): > 100 µM | TGI (MOLT-4 leukemia): 32.8 µM | TGI (NCI-H226 lung): 38.5 µM | TGI (NCI-H460 lung): 54.2 µM | TGI (NCI-H522 lung): 15.4 µM | TGI (NCI/ADR-RES ovarian): 19.4 µM | TGI (OVCAR-3 ovarian): > 100 µM | TGI (OVCAR-4 ovarian): 43.6 µM | TGI (OVCAR-5 ovarian): 38.8 µM | TGI (OVCAR-8 ovarian): 33.4 µM | TGI (PC-3 prostate): 65.1 µM | TGI (RPMI-8226 leukemia): 52.8 µM | TGI (SF-268 CNS): 19.6 µM | TGI (SF-295 CNS): 30.2 µM | TGI (SF-539 CNS): 30.8 µM | TGI (SK-MEL-2 melanoma): 37.7 µM | TGI (SK-MEL-28 melanoma): 37.8 µM | TGI (SK-OV-3 ovarian): > 100 µM | TGI (SN12C renal): 27.9 µM | TGI (SNB-19 CNS): 54.9 µM | TGI (SNB-75 CNS): 52.5 µM | TGI (SW-620 colon): 65.4 µM | TGI (T-47D breast): 49.7 µM | TGI (TK-10 renal): 27.1 µM | TGI (U251 CNS): 53.8 µM | TGI (UACC-257 melanoma): 33.2 µM | TGI (UACC-62 melanoma): 56 µM | TGI (UO-31 renal): 53.6 µM

CN(C)/N=C1\CC(c2ccccc2)C(C#N)(C#N)C1(C#N)C#N (stereo unspecified)
TGI (786-0 renal): 42.3 µM | TGI (A498 renal): 33.8 µM | TGI (A549 NSCLC): > 100 µM | TGI (ACHN renal): 34.8 µM | TGI (CAKI-1 renal): 21.9 µM | TGI (CCRF-CEM leukemia): > 100 µM | TGI (COLO 205 colon): 22.1 µM | TGI (DU-145 prostate): 36.2 µM | TGI (EKVX NSCLC): > 100 µM | TGI (HCC-2998 colon): 33.1 µM | TGI (HCT-116 colon): 39.8 µM | TGI (HCT-15 colon): 30.1 µM | TGI (HL-60(TB) leukemia): > 100 µM | TGI (HOP-62 NSCLC): 59 µM | TGI (HOP-92 NSCLC): 29.7 µM | TGI (HS 578T breast): 75.1 µM | TGI (HT29 colon): 50.5 µM | TGI (IGROV1 ovarian): 45.3 µM | TGI (K-562 leukemia): > 100 µM | TGI (KM12 colon): > 100 µM | TGI (LOX IMVI melanoma): 79.2 µM | TGI (M14 melanoma): 34.3 µM | TGI (MALME-3M melanoma): 34.2 µM | TGI (MCF7 breast): > 100 µM | TGI (MDA-MB-231 breast): 36.9 µM | TGI (MDA-MB-435): 81.8 µM | TGI (MDA-N): 40 µM | TGI (MOLT-4 leukemia): 56.5 µM | TGI (NCI-H226 lung): 84.7 µM | TGI (NCI-H23 lung): 53.1 µM | TGI (NCI-H522 lung): 35.3 µM | TGI (NCI/ADR-RES ovarian): 72.1 µM | TGI (OVCAR-4 ovarian): > 100 µM | TGI (OVCAR-5 ovarian): 59.1 µM | TGI (OVCAR-8 ovarian): 41.9 µM | TGI (PC-3 prostate): 35.6 µM | TGI (RPMI-8226 leukemia): 47.2 µM | TGI (RXF 393 renal): 54.5 µM | TGI (SF-268 CNS): 35.6 µM | TGI (SF-295 CNS): 48.1 µM | TGI (SF-539 CNS): > 100 µM | TGI (SK-MEL-2 melanoma): 40 µM | TGI (SK-MEL-28 melanoma): 46 µM | TGI (SK-MEL-5 melanoma): 24.4 µM | TGI (SK-OV-3 ovarian): > 100 µM | TGI (SN12C renal): 36.9 µM | TGI (SNB-19 CNS): 54.1 µM | TGI (SNB-75 CNS): 33.9 µM | TGI (SR leukemia): > 100 µM | TGI (SW-620 colon): 36.2 µM | TGI (T-47D breast): 50.3 µM | TGI (TK-10 renal): 32.4 µM | TGI (U251 CNS): > 100 µM | TGI (UACC-257 melanoma): 34.3 µM | TGI (UACC-62 melanoma): 41.8 µM | TGI (UO-31 renal): 34.4 µM

Cn1c(N/N=C/c2ccccc2)nc(-c2ccc([N+](=O)[O-])cc2)c(C#N)c1=O
TGI (786-0 renal): > 100 µM | TGI (A498 renal): > 100 µM | TGI (A549 NSCLC): > 100 µM | TGI (ACHN renal): > 100 µM | TGI (CAKI-1 renal): > 100 µM | TGI (CCRF-CEM leukemia): > 100 µM | TGI (COLO 205 colon): > 100 µM | TGI (DU-145 prostate): > 100 µM | TGI (EKVX NSCLC): > 100 µM | TGI (HCT-116 colon): > 100 µM | TGI (HCT-15 colon): > 100 µM | TGI (HL-60(TB) leukemia): 48.3 µM | TGI (HOP-62 NSCLC): > 100 µM | TGI (HOP-92 NSCLC): 80.6 µM | TGI (HS 578T breast): > 100 µM | TGI (HT29 colon): > 100 µM | TGI (IGROV1 ovarian): > 100 µM | TGI (K-562 leukemia): > 100 µM | TGI (KM12 colon): > 100 µM | TGI (LOX IMVI melanoma): > 100 µM | TGI (M14 melanoma): > 100 µM | TGI (MALME-3M melanoma): > 100 µM | TGI (MCF7 breast): > 100 µM | TGI (MDA-MB-231 breast): 86.7 µM | TGI (MDA-MB-435): > 100 µM | TGI (MDA-N): > 100 µM | TGI (MOLT-4 leukemia): > 100 µM | TGI (NCI-H23 lung): > 100 µM | TGI (NCI-H460 lung): > 100 µM | TGI (NCI-H522 lung): > 100 µM | TGI (NCI/ADR-RES ovarian): > 100 µM | TGI (OVCAR-3 ovarian): 44.9 µM | TGI (OVCAR-4 ovarian): > 100 µM | TGI (OVCAR-5 ovarian): > 100 µM | TGI (OVCAR-8 ovarian): > 100 µM | TGI (PC-3 prostate): > 100 µM | TGI (RPMI-8226 leukemia): > 100 µM | TGI (RXF 393 renal): > 100 µM | TGI (SF-268 CNS): > 100 µM | TGI (SF-295 CNS): > 100 µM | TGI (SF-539 CNS): > 100 µM | TGI (SK-MEL-2 melanoma): > 100 µM | TGI (SK-MEL-28 melanoma): > 100 µM | TGI (SK-MEL-5 melanoma): > 100 µM | TGI (SK-OV-3 ovarian): > 100 µM | TGI (SN12C renal): > 100 µM | TGI (SNB-19 CNS): > 100 µM | TGI (SNB-75 CNS): > 100 µM | TGI (SR leukemia): > 100 µM | TGI (SW-620 colon): > 100 µM | TGI (T-47D breast): > 100 µM | TGI (TK-10 renal): > 100 µM | TGI (U251 CNS): > 100 µM | TGI (UACC-257 melanoma): > 100 µM | TGI (UACC-62 melanoma): 97.5 µM | TGI (UO-31 renal): > 100 µM
